# Laboratory results from patent publication EP4778929A1, “NOVEL TYPE I TOPOISOMERASE INHIBITOR, AND PREPARATION METHOD THEREFOR AND USE THEREOF” (priority 2023, dated 2025).
# Where two headings read alike, the source gives them in different places.
# How the values were obtained:
# topoisomerase I (Topo I) = target: T1, topoisomerase I (Topo I) (Homo sapiens, UniProt P11387); assay: Topo I enzyme-inhibitory activity by agarose-gel electrophoresis (plasmid relaxation); assay type: biochemical
# T1 sequence (P11387 1-765): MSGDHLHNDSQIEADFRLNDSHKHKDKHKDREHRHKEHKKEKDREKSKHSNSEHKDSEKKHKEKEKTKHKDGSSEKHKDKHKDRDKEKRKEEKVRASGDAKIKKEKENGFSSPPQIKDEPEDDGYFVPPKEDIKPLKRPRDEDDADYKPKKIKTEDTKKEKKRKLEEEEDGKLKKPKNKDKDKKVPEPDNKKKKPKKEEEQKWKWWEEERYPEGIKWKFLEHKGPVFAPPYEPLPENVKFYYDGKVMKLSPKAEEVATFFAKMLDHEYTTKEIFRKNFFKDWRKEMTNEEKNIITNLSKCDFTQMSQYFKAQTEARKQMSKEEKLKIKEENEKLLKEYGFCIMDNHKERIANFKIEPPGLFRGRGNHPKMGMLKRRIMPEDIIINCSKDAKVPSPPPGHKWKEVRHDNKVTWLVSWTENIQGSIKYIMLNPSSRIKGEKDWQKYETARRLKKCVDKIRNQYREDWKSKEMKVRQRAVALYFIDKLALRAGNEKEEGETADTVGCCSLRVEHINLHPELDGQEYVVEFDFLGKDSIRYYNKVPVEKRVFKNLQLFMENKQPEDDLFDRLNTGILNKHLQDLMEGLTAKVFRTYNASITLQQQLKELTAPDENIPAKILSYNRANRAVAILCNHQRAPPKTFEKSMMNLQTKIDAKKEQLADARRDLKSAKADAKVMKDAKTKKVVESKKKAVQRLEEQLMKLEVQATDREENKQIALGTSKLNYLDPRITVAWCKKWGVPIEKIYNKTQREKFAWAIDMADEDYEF
# Method in brief: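 Supercoiled pNO1 plasmid (0.5 µg) was relaxed by Topo I (0.75 U) in 20 mM Tris-HCl pH 7.5, 200 mM NaCl, 0.25 mM EDTA, 5 % glycerol, 5 % DMSO final, for 30 min at 37 °C. Supercoiled band intensity on agarose gel was normalized to no-enzyme and vehicle controls. IC50 from a four-parameter logistic fit.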
# [1] = Pharmacokinetic study in mice, plasma concentrations by LC-MS/MS; conditions: mouse, in vivo
# Description: Test Example 3. Pharmacokinetic Study for Determining Compound Concentrations in Mice by LC-MS/MS
# Principle: LC-MS/MS is used to quantify the plasma concentrations of the test article at successive time points, generating an in-vivo pharmacokinetic profile.
# Procedure: The test compound was dissolved in DMSO to prepare a 10 mg/mL stock solution. This stock was further diluted to 1 mg/mL with a vehicle consisting of 10 % DMSO + 10 % Solutol HS-15 + 80 % saline. Male CD-1 mice (JH Laboratory Animal Co., LTD) were employed; six animals were assigned per compound group. […] Serial blood samples (~50 µL whole blood, K2EDTA anticoagulant) were collected at 0.083, 0.25, 0.5, 1, 2, 4, 8 and 24 h (three mice per time point in a crossover design). Blood was centrifuged at 6 000 g for 5 min at 4 °C; plasma was harvested and stored at -70 °C until analysis. Plasma drug concentrations were determined by LC-MS/MS.
# Calibration Curve and QC Preparation: Working solutions were prepared by dilution with MeOH:H2O (1:1). For each calibration or QC level, 3 µL of working solution was spiked into 57 µL of blank mouse plasma.
# Sample Processing: To 30 µL of plasma was added 200 µL of methanol containing the internal standard (propranolol, 40 ng mL^-1). After vortex-mixing for 1 min, the mixture was centrifuged at 12 000 rpm for 10 min. A 100 µL aliquot of the supernatant was transferred to a clean plate for injection.
# Pharmacokinetic Analysis: Concentration-time data were analyzed with WinNonlin 8.2 using a non-compartmental approach to derive PK parameters including Cmax, Tmax, AUC and terminal elimination half-life (t1/2). AUC was calculated by the linear-up/log-down trapezoidal method. Table 3. Pk parameters of compounds
compound,measurement,setting,value
"CC[C@@]1(O)C(=O)OCc2c1cc1n(c2=O)Cc2c-1c(=O)c1cc(F)cc(C)c1n2C [Example 2, (S)-4-ethyl-8-fluoro-4-hydroxy-10,11-dimethyl-1,12-dihydro-14H-pyrano[3,4:6,7]indolizino[2,1-b]quinoline-3,6,14(4H,11H)-trione]",IC50,topoisomerase I (Topo I),< 200 nM
same,AUC(0-t) at 24 h,"[1]; iv, 2 mg/kg",323 ng·h/mL
same,Cmax,"[1]; iv, 2 mg/kg",604 ng/mL
same,clearance,"[1]; iv, 2 mg/kg",110 mL/min/kg
same,half-life,"[1]; iv, 2 mg/kg",69.6 min
same,AUC(0-t) at 24 h,"[1]; po, 20 mg/kg",911 ng·h/mL
same,Cmax,"[1]; po, 20 mg/kg",956 ng/mL
same,Tmax,"[1]; po, 20 mg/kg",25.2 min
same,bioavailability,"[1]; po, 20 mg/kg",28.5%
same,half-life,"[1]; po, 20 mg/kg",135 min
CC[C@@]1(O)C(=O)OCc2c1cc1n(c2=O)Cc2c-1c(=O)c1cc(F)ccc1n2CCN(C)C1CCCC1 [Example 117],IC50,"topoisomerase I (Topo I); read-out: inhibition of topoisomerase I (Topo I) enzymatic activity, IC50, 0.75 U Topo I, pNO1 plasmid, 37 °C, 30 min, compounds listed by group (Group A / Group B)",200 to 500 nM
same,AUC(0-t) at 24 h,"[1]; iv, 1 mg/kg",38.7 ng·h/mL
same,Cmax,"[1]; iv, 1 mg/kg",107 ng/mL
same,clearance,"[1]; iv, 1 mg/kg",439 mL/min/kg
same,half-life,"[1]; iv, 1 mg/kg",14.1 min
